{"source": "patent US8435576B2", "about": "“Use of cocoa polyphenols for treating a prostate hyperplasia, a specific cocoa extract and applications” (Barry Callebaut AG, priority 2005, dated 2013)", "format_in_all_cases": "cell-based, human", "key": {"[1]": {"tested_on": "DU145 cells", "test": "Cell growth and viability (neutral red / sulforhodamine B) and morphology", "method": "(§1) Each product (1 to 5) was applied for 1 to 72 hours, at various concentrations. The number of cells was compared with a control, namely cells cultured in the absence of the test compound.\nThe human prostate carcinoma cells DU145 and 22Rv1 were supplied by the American Type Culture Collection (ATCC, Rockville, Md.). The DU145 cells originate from a cerebral metastasic site and are not sensitive to androgens. The 22Rv1 cells originate from a prostate carcinoma and are sensitive to androgens. The cells were maintained in the form of a monolayer culture according to the usual techniques, in […] flasks (Corning), at 37° C., in an atmosphere containing 5% CO2 and at 95% humidity, in an RPMI-1640 medium free of phenol red and supplemented with 10% of heat-inactivated fetal calf serum and 1% of L-glutamine.\n(§2) Five products were tested for this study and were stored protected from light, at +4° C. The β-sitosterol (product 1), obtained from Sigma Chemicals, was first dissolved in absolute ethanol, up to a final concentration of 24.1 mM. Product 2, supplied by Barry Callebaut, France, is a defatted cocoa extract containing 35.5% polyphenols and 0.081% β-sitosterol. Product 3 was reconstituted from products 1 and 2 and contained 35.5% polyphenols and 0.72% β-sitosterol. Products 4 and 5 were manufactured by Barry Callebaut, France. The composition of product 4 is unknown, and contains no β-sitosterol. Product 5 contains 35.27% polyphenols and 0.72% β-sitosterol. Products 2, 3, 4 and 5 were first dissolved in whole medium. As regards products 2, 4 and 5, the total polyphenols of the cocoa extracts originate from different countries.\n(§3) Just before use, the final concentrations of products (table 1) used are prepared for the various experiments by means of stock solutions, by diluting the stock solution in whole medium. 64.2 μM of β-sitosterol is the maximum dose used in this solubility range and in the physiological range (4 to 70 μM). The absolute ethanol is at a constant concentration of 0.26% in the solvent-based control, in the negative control and in the 8 test concentrations. The ratios of the β-sitosterol and of the polyphenols for products 2, 3 and 5 are as follows: • Product 2:2:1000 • Product 3:2:100 • Product 5:2:100\n(§4) The cells were inoculated on 96-well plates at an initial density of 15 000 cells/well for DU145, at an initial density of 30 000 cells/well for 22Rv1 and at an initial density of 25 000 cells/well for RWEP-1, with 200 μL of medium per well. The cell density was optimized as a function of the time required to double the population of cells, in order to obtain a significant measurement of the Optical Density (OD) and to be able to compare the various cells lines. After 24 hours, in order to ensure uniform fixing of the cells from the start of the experiments, the products were added to the cell cultures at various concentrations and at various times. After incubation with the products, the growth and viability of the cells was measured using neutral red (NR) and sulforhodamine B (SRB) combined (In Cytotox, Vandoeuvre, France). The absorption of the vital stain NR was used by the lysosomes/endosomes and by the vacuoles of the live cells as a quantitative indication of the number and viability of the cells after treatment with a chemical test. The anionic stain SRB made it possible to quantify the viable cells via measurement of the protein content of the cells.\n(§5) The cytotoxicity was evaluated 1, 3, 6, 24, 48 and 72 hours after incubating the 22Rv1, RWEP-1 and DU145 cells with the products. The cells were washed with 200 μl of washing solution in order to remove the culture medium supplemented with the products. 200 μL of neutral red base medium was added and incubated with the cells at 37° C. for 3 hours. The neutral red base medium was then removed and the cells were washed twice with phosphate-buffered physiological saline (PBS). The cells were fixed for 1 minute with 200 μL of fixing solution. […]"}, "[2]": {"tested_on": "RWEP-1 cells", "test": "Cell growth and viability (neutral red / sulforhodamine B) and morphology", "method": "as §1\nThe RPMI-1640 medium, the fetal calf serum and the L-glutamine were supplied by Gibco BRL (Cergy Pontoise, France). The cell cultures were replaced every 5 days to ensure exponential growth. The normal human prostate cells RWEP-1 were supplied by the American Type Culture Collection (ATCC, Rockville, Md.). The cells were maintained in the form of a monolayer culture according to the usual techniques, in […] flasks, at 37° C., in an atmosphere containing 5% CO2 and at 95% humidity, in a medium free of serum and of keratinocytes, supplemented with 2.5 μg of recombinant human EGF and 25 mg of calf pituitary extract. The medium was supplied by Gibco BRL (Cergy Pontoise, France).\nas §2, §3, §4\nas §5, with “(PBS).” for “(PBS). The cells were fixed for 1 minute with 200 μL of fixing solution.”"}, "[3]": {"tested_on": "coculture of 22Rv1 and RWEP-1 cells", "test": "Anti-galectin 8 immunolabeling of treated coculture", "conditions": "medium M3, 2.5×10^−4% and 1.2×10^−4%", "method": "As a result, an anti-galectin 8 human monoclonal antibody (R&D Systems, Ref: MAB1305) was selected to specifically fluorescence-label the human prostate tumor cell line.\nThe healthy and tumoral cells were inoculated in coculture, at a rate of 30 000 cells per well for each cell line, in the selected medium for obtaining uniform and specific labeling of the tumoral cells.\nAfter 24 hours in an incubator at 37° C. and 5% CO2 of saturated humidity, the coculture was incubated in the presence of β-sitosterol at two concentrations and of CPE also at two concentrations.\nAt the end of the incubation time with the products, the cell lawns were fixed in alcohol/acetic acid and then labeled with the anti-galectin 8 human monoclonal antibody for 1 hour. […] After intensive washing with PBS, the labeled cell lawns were observed using a Nikon DXM1200F camera driven by LUCIA 6.0 software. All the images were taken under the same conditions and with identical camera settings.\nFor the experiment, in order to improve the intensity of this immunolabeling and for better visual rendering quality, the concentration of the anti-galectin 8 primary antibody was increased from 1/50th to 1/20th. Furthermore, this primary antibody was incubated overnight at +4° C. for better fixing of the antibody and thus for better labeling intensity. […]"}}, "note": "Marks after values point to notes of the source that are not given here.", "data": [{"smiles": "CC[C@H](CC[C@@H](C)[C@H]1CC[C@H]2[C@@H]3CC=C4C[C@@H](O)CC[C@]4(C)[C@H]3CC[C@]12C)C(C)C", "note": "[β-sitosterol]", "values": [{"measurement": "max. inhibition", "setting": "[1]; 24 h, DU145, NR", "value": 11, "unit": "%"}, {"measurement": "max. inhibition", "setting": "[1]; 24 h, DU145, SRB", "value": 42, "unit": "%"}, {"measurement": "max. inhibition", "setting": "[1]; 48 h, DU145, NR", "value": 21, "unit": "%"}, {"measurement": "max. inhibition", "setting": "[1]; 48 h, DU145, SRB", "value": 44, "unit": "%"}, {"measurement": "max. inhibition", "setting": "[1]; 72 h, DU145, NR", "value": 42, "unit": "%"}, {"measurement": "max. inhibition", "setting": "[1]; 72 h, DU145, SRB", "value": 40, "unit": "%"}, {"measurement": "Morphological alterations", "setting": "[1]; DU145, maximum concentration, up to 48 hours", "value": "No significant difference was observed in terms of density and morphology"}, {"measurement": "IC50", "setting": "[1]; DU145, short-term and long-term treatments", "value": "did not induce an IC50"}, {"measurement": "max. inhibition", "setting": "[2]; 24 h, RWEP1, NR", "value": 15, "unit": "%^b"}, {"measurement": "max. inhibition", "setting": "[2]; 24 h, RWEP1, SRB", "value": 9, "unit": "%"}, {"measurement": "max. inhibition", "setting": "[2]; 48 h, RWEP1, NR", "value": 29, "unit": "%"}, {"measurement": "max. inhibition", "setting": "[2]; 48 h, RWEP1, SRB", "value": 48, "unit": "%"}, {"measurement": "max. inhibition", "setting": "[2]; 72 h, RWEP1, NR", "value": 11, "unit": "%"}, {"measurement": "max. inhibition", "setting": "[2]; 72 h, RWEP1, SRB", "value": 26, "unit": "%"}, {"measurement": "IC50", "setting": "[2]; RWEP-1, between 1 and 72 hours of treatment", "value": "never reached"}, {"measurement": "Area of labeling (anti-galectin 8 and Hoechst)", "setting": "[3]", "value": "equivalent to that of the untreated proliferation control"}]}]}
